Assay [1] relates to NlugCSP7. Further details: method as in Yang et al., 2014. The following applies: ref Yang et al., 2014; cited from earlier work.
Assay [2] has as its system BPH. Further details: method as in Obata et al., 1983. The following applies: volatile isolated from rice plants; ref Obata et al., 1983; cited from earlier work.
Assay [3] deals with NlugCSP8 (Nilaparvata lugens, UniProt B7TVH4). The experiment in a line: Fluorescence competitive ligand binding assay with 1-NPN probe. The protocol: The recombinant pET-30a/CSP8 expression plasmid was transformed into Escherichia coli BL21 (DE3) competent cells. After DNA sequencing, a single positive clone was grown in 10 mL Luria-Bertani (LB) medium containing kanamycin (50 μg/mL) with shaking overnight at 220 rpm and 37°C. The culture was diluted to 2 L LB medium (supplemented with 50 μg/mL kanamycin) and grown at 37°C with shaking at 220 rpm until the culture reached the optical density value of ~0.6–0.7 at 600 nm. The recombinant protein expression was induced by the addition of 2 mM IPTG (Isopropyl β-D-1-thiogalactopyranoside), followed by culturing for 4 h at 37°C. The bacterial cells were harvested by centrifugation (10,000 rpm, 10 min) and sonicated. The expressed protein presented in the supernatant as a soluble form. Then, NlugCSP8 purification was performed using a Ni-ion affinity chromatography column (GE Healthcare, Uppsala, Sweden). His-tag was removed from the recombinant protein with the addition of recombinant bovine enterokinase (EK) in the eluted fractions of protein, followed by 16 h incubation at 25°C. After running the digested protein back through the Ni-ion affinity chromatography column, the tag-free protein was obtained in the flow through fraction. Protein expression and purification steps were assessed by 15% SDS-PAGE (sodium dodecyl sulfate-polyacrylamide gel electrophoresis). Finally, purified protein was dialyzed in Tris buffer (pH 5.0) and (pH 7.4). The concentration of purified protein was determined prior to perform ligand-binding specificities of NlugCSP8 with 25 selected ligands at pH 5.0 and pH 7.4.
Fluorescence-based ligand binding assays were performed based on the method described by Sun X. et al. ([2016]). According to previous studies about the rice-specific volatiles (Fujii et al., [2010]; He et al., [2011]; Yang et al., [2014]; Zhang et al., [2014]), 25 potential ligands were selected for the fluorescence binding assays (Table 1). All the ligands used in this study were purchased from Sigma-Aldrich (St. Louis, MO, USA) and stored according to manufacturer instructions. The ligand binding affinity for various ligands was determined by using the 1-NPN (N-phenyl-1-naphthylamine) as a fluorescent probe. RF-5301PC fluorimeter (Shimadzu, Kyoto, Japan) was used for fluorescence binding assay at 25°C with 10 nm slit width and 1 cm light path quartz cuvette for emission and excitation. The 1-NPN/NlugCSP8 mixture was excited using an excitation wavelength of 337 nm, and the fluorescence intensity was recorded between 350 and 600 nm following an established protocol (Ban et al., [2002]). The 1-NPN and all the potential ligands were prepared in spectrophotometric-grade methanol. The binding constant for 1-NPN was measured by adding aliquots of 1 mM 1-NPN into a 2 μM solution of protein in 30 mM Tris-HCL at room temperature. […] For each test, fluorescence measurement was conducted after the reaction was incubated for 2 min at room temperature (Liu et al., [2015]). Three independent measurements were used to obtain the binding data. 1-NPN/NlugCSP8 dissociation constants (Kd) were calculated from Scatchard plots of the binding data using the Prism 5 software (GraphPad, La Jolla, CA, USA). The curves were linearized using the Scatchard plot program (Campanacci et al., [2001]). The dissociation constants of the competitors were determined by using the corresponding IC50-values according to the equation Ki = [IC50]/ (1+[1-NPN]/K1−NPN), where IC50 represents the concentration of ligand which decreases the fluorescence intensity of [1-NPN], [1-NPN] is the free concentration of 1-NPN and K1−NPN is the dissociation constant of the NlugCSP8/1-NPN complex (Ban et al., [2003]; Tian and Zhang, [2016]). For the reader's convenience, data were recalculated as 1/ki × 1,000, for which a larger value designates a stronger ligand binding affinity.

Assay [4] deals with Nilaparvata lugens. Kind of assay: H-tube olfactometer assay after RNAi (dsRNA-injected BPH). It is filed as in vivo. Conditions: 10 μl/mL (nerolidol), 100 μl/mL (hexanal); compared with controls. The protocol: BPH behavior responses to different ligands were tested in an H-tube olfactometer similar to which previously used by Yi et al. ([2018]) in our laboratory. The H-tube olfactometer mainly consists of two glass tubes (arms) with gauze at its top end. These two glass tubes were connected by another tube (5 cm in diameter, 20 cm long with a hole of 1 cm in the middle for releasing BPH). Twenty macropterous (10 from each sex) BPH adults were introduced into the H-tube and the number of BPH was counted at 30 min after their introduction. Liquid paraffin was used as in control arm. Rubber septa were absorbed in the liquid paraffin and solutions of the odor molecules to be tested (liquid paraffin+ different concentration of tested volatile) and placed at room temperature. After 24 h, one rubber septa from each control and tested volatile was put in each glass arm. After one replication, rubber septa were changed and three treatments (1, 10, and 100 μl/mL) of tested volatiles against macropterous adults were tested in eight replications. […] In order to evaluate the best RNAi effect, mRNA levels of NlugCSP8-dsRNA injected insects were determined and compared with the GFP-dsRNA-injected and non-injected insects, prior to H-tube olfactometer bioassay. […]

Assay [5] deals with BPH. Further details: method as in Hernandez et al., 1989; Youn, 2002. The following applies: BPH and some other Hemiptera; ref Hernandez et al., 1989; Youn, 2002; cited from earlier work.
The subject of assay [6] is Nilaparvata lugens. Kind of assay: H-tube olfactometer behavioral assay. It is filed as in vivo. The following applies: macropterous adults, vs liquid paraffin. On the procedure:
BPH behavior responses to different ligands were tested in an H-tube olfactometer similar to which previously used by Yi et al. ([2018]) in our laboratory. The H-tube olfactometer mainly consists of two glass tubes (arms) with gauze at its top end. These two glass tubes were connected by another tube (5 cm in diameter, 20 cm long with a hole of 1 cm in the middle for releasing BPH). Twenty macropterous (10 from each sex) BPH adults were introduced into the H-tube and the number of BPH was counted at 30 min after their introduction. Liquid paraffin was used as in control arm. Rubber septa were absorbed in the liquid paraffin and solutions of the odor molecules to be tested (liquid paraffin+ different concentration of tested volatile) and placed at room temperature. After 24 h, one rubber septa from each control and tested volatile was put in each glass arm. After one replication, rubber septa were changed and three treatments (1, 10, and 100 μl/mL) of tested volatiles against macropterous adults were tested in eight replications. After four replications, the H-tube olfactometer was washed with 75% alcohol and the liquid paraffin rubber septa were placed in another arm to complete the other four replications. The impact of NlugCSP8-dsRNA on the preference of N. lugens was also tested by H-tube olfactometer assays. Corresponding control experiments without dsRNA injection were performed to investigate whether the preference of N. lugens was affected by volatile concentration change. Three treatments of BPH (NlugCSP8-dsRNA injected, GFP-dsRNA injected, and without injection) were tested in four replications. As in case of dsRNA injected insects, the concentration of volatiles that have highly significant attractive results on non-injected insects used for dsCSP8 and dsGFP injected insects. In order to evaluate the best RNAi effect, mRNA levels of NlugCSP8-dsRNA injected insects were determined and compared with the GFP-dsRNA-injected and non-injected insects, prior to H-tube olfactometer bioassay. Based on the findings of previous step, we re-inject the BPH and the individuals with the best post-injection RNAi effect after 7-days, were used in the H-tube olfactometer bioassay. Bioassays were performed under controlled conditions at 26 ± 2°C and 75 ± 5% relative humidity.

Here are results for two molecules from PMC5906745, “Silencing of Chemosensory Protein Gene NlugCSP8 by RNAi Induces Declining Behavioral Responses of Nilaparvata lugens” (Frontiers in Physiology, 2018).

“Also recorded” adds a separate entry of the source. Like-named read-outs stand apart in the source and are kept apart here.

Sequence of NlugCSP8 (B7TVH4 entry or part of it): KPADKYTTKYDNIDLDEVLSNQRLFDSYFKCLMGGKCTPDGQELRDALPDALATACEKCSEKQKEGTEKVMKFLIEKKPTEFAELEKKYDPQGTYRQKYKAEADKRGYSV

For `CCCCCCCCCCCC(C)=O` [2-Tridecanone], the “binding affinity with NlugCSP7” value in assay [1] is on record as “relatively weak binding affinity”. Besides, the “attraction of BPH” value in assay [2] is reported as “able to attract BPH”. Besides, the Ki (commonly the dissociation constant of the complex between target and ligand, obtained from inhibition or displacement) is 10.4 µM in assay [3] (pH 5.0, calculated from IC50, read-out: Ki) and 12.5 µM in assay [3] (pH 7.4, calculated from IC50, read-out: Ki). Besides, the IC50 (as a rule, the point on the concentration scale where inhibition reaches its midpoint) in assay [3] (pH 5.0, read-out: IC50) stood at 12 µM; in assay [3] (pH 7.4, read-out: IC50) it was 15 µM.

For `CCCCCC=O` [Hexanal], the “behavior response of dsCSP8-injected (RNAi) BPH to attractant” value in assay [4] was “reduced significantly; also recorded: significantly inhibited”. Moreover, the Electroantennogram response entry in assay [5] is “high Electroantennogram response”. For the same molecule, the “behavioral response of BPH” value in assay [6] (1 μl/mL) is on record as “repellency”; in assay [6] (10 μl/mL), “attraction became weakened”; in assay [6] (100 μl/mL), “strongly behaved as attractant”. For the same molecule, in assay [1], the “binding affinity with NlugCSP7” value is on record as “weak affinities”. Moreover, the IC50 in assay [3] (IC50, pH 5.0) amounted to 11 µM; in assay [3] (IC50, pH 7.4), 17.3 µM. The Ki in assay [3] (Ki, pH 5.0, calculated from IC50) was 9.56 µM; in assay [3] (Ki, pH 7.4, calculated from IC50), 14.4 µM.
